Test results taken from US20230184744A1, “INTERTUMORAL HOMOGENEITY DETERMINED BY MiCK ASSAY” (Pierian Biosciences, LLC, priority 2014, published 2023).
Numbered stars: 1 amine (or outer) side, 2 acyl side, 3 side chain; on linkers, the order of the positions; unused ones are H or OH. Bridge positions count the residues as written; N and C are the ends. Square brackets hold non-standard residues; d marks the D form. Peptide text beside a SMILES is read from it. I, II: the chains in the order shown. Actinocin(9to1) = Cc1c2oc3c(C)ccc(C(=O)[*:1])c3nc-2c(C(=O)[*:2])c(N)c1=O; NMeV = CN[C@H](C(=O)O)C(C)C; Sar = CNCC(=O)O

Legend:
[1] = system: NSCLC, multi-focal, recurrent adenocarcinoma (site A); assay: MiCK assay, drug-induced apoptosis, Table 3 tumor C1; assay type: cell-based, human; settings: Table 3 tumor C1: NSCLC, multi-focal, recurrent adenocarcinoma (site A); 48 hours with drug
Source text: (§1) Data were obtained optically using Mie light-scattering.
(§2) Do a test well. […] Look at the well under the inverted microscope. […] Repeat until optimal cell concentration is found. Plate the cells into the wells.

[2] = system: NSCLC, multi-focal adenocarcinoma (site A); assay: MiCK assay, drug-induced apoptosis, Table 3 tumor E1; assay type: cell-based, human; settings: Table 3 tumor E1: NSCLC, multi-focal adenocarcinoma (site A); 48 hours with drug
Source text: as §1, §2

[3] = system: NSCLC, multi-focal, recurrent adenocarcinoma (lymph node); assay: MiCK assay, drug-induced apoptosis, Table 3 tumor D2; assay type: cell-based, human; settings: Table 3 tumor D2: NSCLC, multi-focal, recurrent adenocarcinoma (lymph node); 48 hours with drug
Source text: as §1, §2

[4] = system: Lung adenocarcinoma (pleural effusion); assay: MiCK assay, drug-induced apoptosis, Table 4 tumor B1; assay type: cell-based, human; settings: Table 4 tumor B1: Lung adenocarcinoma (pleural effusion); 48 hours with drug
Source text: as §1
Patients: Three patients were included in this study. […] Patient A was diagnosed with pancreatic islet cell cancer; sample 1 was collected from lymph node and sample 2 was collected from the primary tumor. Patient B was diagnosed with lung cancer NSCLC adenocarcinoma; sample 1 was collected from pleural effusion and sample 2 was collected from solid tumor. […] Ages of the patients ranged from 51-79 years old with an average age of 65 years. One patient was […] and two were female.

[5] = system: Pancreatic islet cell cancer (lymph node); assay: MiCK assay, drug-induced apoptosis, Table 4 tumor A1; settings: Table 4 tumor A1: Pancreatic islet cell cancer (lymph node); 48 hours with drug
Protocol: (§3) After overnight incubation, chemotherapy drugs were added to the wells of the 96-well plate in 5 μL aliquots or to the wells of a 384-well plate in 2.5 μL aliquots using an automated pipettor. The number of drugs or drug combinations and the number of concentrations tested depended on the number of viable malignant cells that were isolated from the tumor specimen. The drug concentrations, determined by molarity, were those indicated by the manufacturer as the desired blood level concentration plus or minus one serial dilution if enough cells were available.
(§4) Following drug addition, the plate was incubated for 30 min. at 37° C. in a 5% carbon dioxide humidified atmosphere incubator. Each well was then overlayed with sterile mineral oil, and the plate was placed into the incubator chamber of a microplate spectrophotometric reader. The optical density at 600 nanometers was read and recorded every 5 minutes over a period of 48 hours.
(§5) Patients: Three patients were included in this study. Two tumor samples from different tumor sites were collected from each patient. Both samples from each patient were collected on the same day.

[6] = system: Lung small cell carcinoma (site A); assay: MiCK assay, drug-induced apoptosis, Table 4 tumor C1; settings: Table 4 tumor C1: Lung small cell carcinoma (site A); 48 hours with drug
Protocol: as §3, §4, §5

[7] = system: Probable mesothelioma (pleural effusion); assay: MiCK assay, drug-induced apoptosis, Table 3 tumor A2; assay type: cell-based, human; settings: Table 3 tumor A2: Probable mesothelioma (pleural effusion); 48 hours with drug
Protocol: as §1
When the optimal cell concentration is reached, put the cells in the plate and incubate overnight in the incubating chamber of the incubator (37° C.).

[8] = system: NSCLC, bilateral well-differentiated adenocarcinoma (site 1A); assay: MiCK assay, drug-induced apoptosis, Table 3 tumor B1; assay type: cell-based, human; settings: Table 3 tumor B1: NSCLC, bilateral well-differentiated adenocarcinoma (site 1A); 48 hours with drug
Source text: as §1, §2

[9] = system: NSCLC, bilateral well-differentiated adenocarcinoma (site 1B); assay: MiCK assay, drug-induced apoptosis, Table 3 tumor B2; assay type: cell-based, human; settings: Table 3 tumor B2: NSCLC, bilateral well-differentiated adenocarcinoma (site 1B); 48 hours with drug
Source text: as §1, §2

[10] = system: Lung adenocarcinoma (site B); assay: MiCK assay, drug-induced apoptosis, Table 4 tumor C2; settings: Table 4 tumor C2: Lung adenocarcinoma (site B); 48 hours with drug
Protocol: as §3
(§6) Following drug addition, the plate was incubated for 30 min. at 37° C. in a 5% carbon dioxide humidified atmosphere incubator. Each well was then overlayed with sterile mineral oil, and the plate was placed into the incubator chamber of a microplate spectrophotometric reader. The optical density at 600 nanometers was read and recorded every 5 minutes over a period of 48 hours. Optical density increases, which correlates with apoptosis, were converted to kinetic units (KU) of apoptosis by a proprietary software ProApo with a formula described in the Kravtsov reference incorporated by reference (i.e. Kravtsov V. et al. “Use of the Microculture Kinetic Assay of apoptosis to determine chemosensitivities of leukemias.” Blood 1998; 92:968-980).
(§7) Purified tumor cells were cultured for 48 hours with individual drugs, and drug-induced apoptosis was measured using the MiCK assay as described in Example 1. Data were obtained optically using Mie light-scattering.

[11] = system: NSCLC, multi-focal, recurrent adenocarcinoma (right lung); assay: MiCK assay, drug-induced apoptosis, Table 3 tumor D1; assay type: cell-based, human; settings: Table 3 tumor D1: NSCLC, multi-focal, recurrent adenocarcinoma (right lung); 48 hours with drug
Source text: as §1, §2

[12] = system: Pancreatic islet cell cancer (primary tumor); assay: MiCK assay, drug-induced apoptosis, Table 4 tumor A2; settings: 48 hours with drug
Protocol: as §3, §6, §7

Molecule	kinetic units (KU) of apoptosis [5]	kinetic units (KU) of apoptosis [6]	kinetic units (KU) of apoptosis [7]	kinetic units (KU) of apoptosis [8]	kinetic units (KU) of apoptosis [9]	other results
O=P1(NCCCl)OCCCN1CCCl (centres unmarked) [4HI (Ifosfamide), Ifosfamide]	3.01 KU	1.50 KU	3.40 KU	2.70 KU	0.70 KU	kinetic units (KU) of apoptosis [1]: 0.50 KU; kinetic units (KU) of apoptosis [2]: 0.10 KU; kinetic units (KU) of apoptosis [3]: 1.20 KU; kinetic units (KU) of apoptosis [4]: 2.40 KU
O=c1[nH]cc(F)c(=O)[nH]1 [5FU, 5-Fluorouracil]	0.42 KU	–	–	–	–	–
Nc1nc2[nH]cc(CCc3ccc(C(=O)N[C@@H](CCC(=O)O)C(=O)O)cc3)c2c(=O)[nH]1 [Alimta, Pemetrexed]	0.22 KU	1.40 KU	1.20 KU	1.40 KU	1.60 KU	kinetic units (KU) of apoptosis [1]: 0.80 KU; kinetic units (KU) of apoptosis [10]: 0.70 KU; kinetic units (KU) of apoptosis [3]: 0.60 KU; kinetic units (KU) of apoptosis [11]: 0.70 KU
Cn1c(CCCC(=O)O)nc2cc(N(CCCl)CCCl)ccc21 [Bendamustine]	1.39 KU	–	–	–	–	–
O=NN(CCCl)C(=O)NC1CCCCC1 [CCNU]	1.00 KU	0.90 KU	–	–	–	–
O=NN(CCCl)C(=O)NCCCl [Carmustine]	0.82 KU	3.00 KU	–	–	–	kinetic units (KU) of apoptosis [10]: 0.50 KU; kinetic units (KU) of apoptosis [4]: 1.20 KU
Nc1nc(Cl)nc2c1ncn2[C@H]1C[C@H](O)[C@@H](CO)O1 [Cladribine]	0.61 KU	–	–	–	–	–
CN(C)/N=N/c1[nH]cnc1C(N)=O [Dacarbazine]	1.31 KU	–	–	–	–	kinetic units (KU) of apoptosis [12]: 0.00 KU
Cc1c2oc3c(C)ccc(C(=O)N[C@@H]4C(=O)N[C@H](C(C)C)C(=O)N5CCC[C@H]5C(=O)N(C)CC(=O)N(C)[C@@H](C(C)C)C(=O)O[C@@H]4C)c3nc-2c(C(=O)N[C@@H]2C(=O)N[C@H](C(C)C)C(=O)N3CCC[C@H]3C(=O)N(C)CC(=O)N(C)[C@@H](C(C)C)C(=O)O[C@@H]2C)c(N)c1=O [Dactinomycin] (I: T[dV]P[Sar][NMeV] / II: T[dV]P[Sar][NMeV]; ester I:1-I:C, II:1-II:C; linker I:N-II:N via Actinocin(9to1))	–	7.70 KU	4.70 KU	1.20 KU	0.90 KU	kinetic units (KU) of apoptosis [10]: 3.00 KU; kinetic units (KU) of apoptosis [4]: 2.70 KU; kinetic units (KU) of apoptosis [11]: 0.90 KU
COc1cccc2c1C(=O)c1c(O)c3c(c(O)c1C2=O)C[C@@](O)(C(C)=O)C[C@@H]3O[C@H]1C[C@H](N)[C@H](O)[C@H](C)O1 [Daunorubicin]	–	8.10 KU	3.80 KU	1.40 KU	1.40 KU	–
CO[C@H]1C[C@@H]2CC[C@@H](C)[C@@](O)(O2)C(=O)C(=O)N2CCCC[C@H]2C(=O)O[C@H]([C@H](C)C[C@@H]2CC[C@@H](OCCO)[C@H](OC)C2)CC(=O)[C@H](C)/C=C(\C)[C@@H](O)[C@@H](OC)C(=O)[C@H](C)C[C@H](C)/C=C/C=C/C=C/1C [Everolimus]	1.31 KU	0.50 KU	–	–	–	kinetic units (KU) of apoptosis [10]: 1.00 KU; kinetic units (KU) of apoptosis [12]: 0.00 KU
Cc1ccc(NC(=O)c2ccc(CN3CCN(C)CC3)cc2)cc1Nc1nccc(-c2cccnc2)n1 [Gleevec, imatinib]	0.39 KU	0.00 KU	–	–	–	–
CC(=O)[C@]1(O)Cc2c(O)c3c(c(O)c2[C@@H](O[C@H]2C[C@H](N)[C@H](O)[C@H](C)O2)C1)C(=O)c1ccccc1C3=O [Idarubicin]	1.22 KU	8.00 KU	4.00 KU	1.20 KU	1.10 KU	kinetic units (KU) of apoptosis [1]: 0.90 KU; kinetic units (KU) of apoptosis [10]: 3.00 KU; kinetic units (KU) of apoptosis [11]: 1.30 KU
C/C(=C\c1csc(C)n1)[C@@H]1C[C@@H]2O[C@]2(C)CCC[C@H](C)[C@H](O)[C@@H](C)C(=O)C(C)(C)[C@@H](O)CC(=O)N1 [Ixabepilone]	1.00 KU	–	–	–	–	–
N[C@@H](Cc1ccc(N(CCCl)CCCl)cc1)C(=O)O [Melphalan]	0.57 KU	–	–	–	–	kinetic units (KU) of apoptosis [4]: 3.10 KU
CO[C@@]12[C@H](COC(N)=O)C3=C(C(=O)C(C)=C(N)C3=O)N1C[C@@H]1N[C@@H]12 [Mitomycin]	1.04 KU	6.30 KU	1.00 KU	1.20 KU	1.00 KU	kinetic units (KU) of apoptosis [1]: 0.00 KU; kinetic units (KU) of apoptosis [4]: 0.90 KU; kinetic units (KU) of apoptosis [11]: 0.60 KU
O=C1c2c(O)ccc(O)c2C(=O)c2c(NCCNCCO)ccc(NCCNCCO)c21 [Mitoxantrone]	0.82 KU	1.60 KU	–	–	–	kinetic units (KU) of apoptosis [4]: 2.30 KU
CNC(=O)c1cc(Oc2ccc(NC(=O)Nc3ccc(Cl)c(C(F)(F)F)c3)cc2)ccn1 [Sorafenib]	1.57 KU	–	–	–	–	–
CN(N=O)C(=O)N[C@@H](C=O)[C@@H](O)[C@H](O)[C@H](O)CO [Streptozocin]	0.23 KU	–	–	–	–	kinetic units (KU) of apoptosis [12]: 0.0 KU
CCN(CC)CCNC(=O)c1c(C)[nH]c(/C=C2\C(=O)Nc3ccc(F)cc32)c1C [Sunitinib]	1.93 KU	–	–	–	–	kinetic units (KU) of apoptosis [4]: 0.70 KU; kinetic units (KU) of apoptosis [12]: 2.06 KU
C#Cc1cccc(Nc2ncnc3cc(OCCOC)c(OCCOC)cc23)c1 [Tarceva]	0.66 KU	0.00 KU	0.80 KU	0.60 KU	0.60 KU	kinetic units (KU) of apoptosis [10]: 0.70 KU; kinetic units (KU) of apoptosis [11]: 0.5 KU
Cn1nnc2c(C(N)=O)ncn2c1=O [Temozolomide]	0.62 KU	–	–	–	–	kinetic units (KU) of apoptosis [12]: 1.22 KU
CC(C)C[C@H](NC(=O)[C@H](Cc1ccccc1)NC(=O)c1cnccn1)B(O)O [Velcade, Bortezomib]	0.79 KU	1.60 KU	1.10 KU	2.00 KU	2.00 KU	kinetic units (KU) of apoptosis [1]: 0.20 KU; kinetic units (KU) of apoptosis [10]: 1.80 KU; kinetic units (KU) of apoptosis [4]: 3.40 KU; kinetic units (KU) of apoptosis [11]: 0.60 KU
Nc1ncn([C@@H]2O[C@H](CO)[C@@H](O)[C@H]2O)c(=O)n1 [Vidaza]	1.00 KU	–	–	–	–	–
CC[C@]1(O)C[C@@H]2CN(CCc3c([nH]c4ccccc34)[C@@](C(=O)OC)(c3cc4c(cc3OC)N(C)[C@H]3[C@@](O)(C(=O)OC)[C@H](OC(C)=O)[C@]5(CC)C=CCN6CC[C@]43[C@@H]65)C2)C1 [Vinblastine]	1.00 KU	3.10 KU	–	–	–	kinetic units (KU) of apoptosis [10]: 2.00 KU
CCCCCOC(=O)Nc1nc(=O)n([C@@H]2O[C@H](C)[C@@H](O)[C@H]2O)cc1F [Xeloda]	0.42 KU	–	–	–	–	kinetic units (KU) of apoptosis [12]: 0.90 KU
Bleomycin	–	–	1.00 KU	1.90 KU	1.30 KU	–
